Source: article PMC8744235 (Journal of Biomedical Science, 2022)
Where “and” joins values, the source holds several entries; their conditions need not be identical. Equal values may be shown once. Where a name gives a salt, the structure may show the parent alone. Read-outs that look alike come from different tables or passages of the source.

Key:
FRTL-5 cells = conditions: inhibition of GHB uptake by FRTL-5 cells; cited from earlier work
[1] = system: [^3H]VPA uptake in MT (hSOD1^G93A) NSC-34 cell line; conditions: for [^3H]VPA uptake (% of control): 10 s, 37 °C
[2] = system: [^3H]VPA uptake in WT (hSOD1^WT) NSC-34 cell line; experiment: Inhibition of [3H]VPA uptake by substrates/inhibitors/drugs, WT cell line; assay type: cell-based; conditions: for [^3H]VPA uptake (% of control): 10 s, 37 °C
[3] = system: [^3H]VPA uptake in MT (hSOD1^G93A) NSC-34 cell line; experiment: cells
NSC-34 MT cell line = experiment: Cell viability (MTT) assay, glutamate- and H2O2-induced neurotoxicity, MT; conditions: 24 h
Method: (§1) Then, an MTT [3‐(4,5‐[…]‐2‐yl)‐2,5‐diphenyltetrazoliumbromide] solution (5 mg/mL) was added and the cells were stored in the dark at 37 °C until the appearance of a purple precipitate (formazan). Then, DMSO was added and the cells were left for 15 min; afterwards, the absorbance was measured using an Infinite F200 PRO microplate reader (Tecan Trading AG, Männedorf, Switzerland) at […]. Images were captured using an EVOS XL Core Cell Imaging System (Life technologies, Thermo Fisher Scientific Korea Co., Ltd.).

[4] = system: NSC-34 wild-type (NSC-34/hSOD1^WT) cell line; experiment: [3H]VPA cellular uptake and kinetic parameters, WT cell line; assay type: in vitro ADME
From the text: (§2) To maintain the sodium-free environment in the ECF buffer, NaCl and NaHCO3 was replaced with […] and N-methyl-D-glucamine (NMG), respectively. […] Similarly, to observe the effect of pH, the ECF buffer was adjusted to pH 6.0-7.4 using HCl or NaOH following a previously described experimental procedure. […] For the Eadie-Hofstee plot, the saturable components were plotted by subtracting the non-saturable uptake from the total uptake rate.

[5] = system: NSC-34 mutant-type (NSC34/hSOD1^G93A) cell line; experiment: [3H]VPA cellular uptake and kinetic parameters, MT ALS cell line; assay type: in vitro ADME
From the text: as §2

[6] = in the body; cited from earlier work
NSC-34 WT cell line = experiment: Cell viability (MTT) assay, glutamate- and H2O2-induced neurotoxicity, WT; conditions: 24 h
Method: as §1

colonic mucosa = system: colonic mucosa; set-up: method as in PMID 32014250; conditions: cited from earlier work
SMCT1 = conditions: inhibition of uptake of SMCT1 substrate nicotinate, mouse colon cell lines; cited from earlier work
[7] = NSC-34, pH 6, read-out: IC50 for [^3H]VPA uptake
[8] = NSC-34, pH 7.4, read-out: IC50 for [^3H]VPA uptake
[9] = VPA 2 mM added to glutamate (2 mM) and H2O2 (300 µM)
[10] = 5–30 s, pH 6.0–7.4, sodium-free (NMG) buffer
[11] = high-affinity site, unlabeled VPA 0–10 mM, 10 s, pH 7.4, 37 °C
[12] = low-affinity site, 10 s, pH 7.4

| Structure (SMILES) | [^3H]VPA uptake (% of control) ([1]; compound 1 mM, pH 6.0) | [^3H]VPA uptake (% of control) ([2]; compound 1 mM, pH 6.0) | [^3H]VPA uptake (% of control) ([1]; compound 10 mM, pH 6.0) | [^3H]VPA uptake (% of control) ([2]; compound 10 mM, pH 6.0) | further results |
| --- | --- | --- | --- | --- | --- |
| C[C@H](O)C(=O)O [L-lactate] |  |  |  |  | IC50 (FRTL-5 cells): in the micromolar range |
| CC(C(=O)O)c1cccc(C(=O)c2ccccc2)c1 (centres unmarked) [ketoprofen] |  |  |  |  | IC50 (FRTL-5 cells): in the micromolar range |
| O=S(=O)(O)c1cc(N=C=S)ccc1C=Cc1ccc(N=C=S)cc1S(=O)(=O)O [DIDS, 4,4′-diisothiocyano-2,2′-stilbenedisulfonic acid] | 58.8 ± 4.9 % of control | 54.8 ± 4.3 % of control |  |  | depletion in VPA transport ([1]; 1 mM): approximately 40%; depletion in VPA transport ([2]; 1 mM): approximately 40% |
| O=C(O)CCCc1ccccc1 [PBA, 4-phenylbutyric acid] |  |  | 56.6 ± 3.0 % of control | 43.1 ± 2.2 % of control |  |
| CC(C)Cc1ccc(C(C)C(=O)O)cc1 (centres unmarked) [Ibuprofen] | 61.9 ± 7.5 % of control | 64.3 ± 3.6 % of control | 33.5 ± 1.0 % of control | 22.3 ± 1.5 % of control | IC50 (FRTL-5 cells): in the micromolar range; IC50 [3, 7]: 6.65 mM; IC50 [3, 8]: 36 mM |
| O=C(O)c1ccccc1O [Salicylic acid] | 78.8 ± 8.6 % of control | 64.9 ± 2.0 % of control | 31.9 ± 1.6 % of control | 17.9 ± 1.5 % of control | IC50 [3, 7]: 7.36 mM |
| CC(=O)O [Acetic acid, acetic acid] | 40.3 ± 5.0 % of control | 54.9 ± 6.7 % of control | 15.4 ± 1.4 % of control | 24.4 ± 3.0 % of control |  |
| CCCC(CCC)C(=O)O [VPA, Valproic acid] | 78.4 ± 1.6 % of control | 78.3 ± 4.5 % of control | 37.4 ± 4.2 % of control | 35.9 ± 5.2 % of control | neuroprotective effect on cell viability (MTT) (NSC-34 MT cell line; [9]): restored the viability; dependence of [^3H]VPA uptake [4, 10]: time, pH, and sodium dependent; Vmax1 ([4]; high-affinity site, pH 7.4): 0.0083 ± 0.0044 nmol/mg protein/10 s; Km1 [4, 11]: 37.8 ± 3.0 µM; Km2 [4, 12]: 4.59 ± 0.62 mM and 4.588 ± 0.620 mM; Vmax2 ([4]; low-affinity site, pH 7.4): 1.86 ± 0.24 nmol/mg protein/10 s and 1.864 ± 0.244 nmol/mg protein/10 s; dependence of [^3H]VPA uptake [5, 10]: time, pH, and sodium dependent; Vmax1 ([5]; high-affinity site, pH 7.4): 0.0232 ± 0.0007 nmol/mg protein/10 s; Km1 [5, 11]: 19.1 ± 0.7 µM; Km2 [5, 12]: 1.14 ± 0.14 mM and 1.144 ± 0.143 mM; Vmax2 ([5]; low-affinity site, pH 7.4): 0.231 ± 0.015 nmol/mg protein/10 s; half-life [6]: 9 to 16 h; neuroprotective effect on cell viability (MTT) (NSC-34 WT cell line; [9]): restored the viability |
| O=C(O)CC(O)(CC(=O)O)C(=O)O [Citric acid, citric acid] |  |  | 125 ± 13 % of control | 113 ± 3 % of control |  |
| C[C@]12CC[C@@H]3c4ccc(OS(=O)(=O)O)cc4CC[C@H]3[C@@H]1CCC2=O [Estrone − 3 sulfate, estrone 3-sulfate] |  |  | 58.2 ± 8.5 % of control | 60.6 ± 8.4 % of control |  |
| NS(=O)(=O)c1cc(C(=O)O)c(NCc2ccco2)cc1Cl [Furosemide, furosemide] | 61.7 ± 2.2 % of control | 61.7 ± 6.3 % of control |  |  | [^3H]VPA uptake (% of control) ([1]; compound 5 mM, acidic pH): 82.3 ± 7.5 % of control; [^3H]VPA uptake (% of control) ([2]; compound 5 mM, acidic pH): 77.5 ± 4.9 % of control |
| CCCN(CCC)S(=O)(=O)c1ccc(C(=O)O)cc1 [probenecid] |  |  |  |  | IC50 (FRTL-5 cells): in the micromolar range |
| N#CC(=Cc1ccc(O)cc1)C(=O)O [CHC, α-cyano-4-hydroxycinnamate] |  |  | 74.6 ± 7.1 % of control | 67.7 ± 9.0 % of control |  |
| N[C@@H](CCC(=O)O)C(=O)O [glutamate] |  |  |  |  | effect of neurotoxic stimulus on cell viability (MTT) (NSC-34 MT cell line; glutamate 2 mM or H2O2 300 µM): significantly decreased the viability; effect of neurotoxic stimulus on cell viability (MTT) (NSC-34 WT cell line; glutamate 2 mM or H2O2 300 µM): significantly decreased the viability |
| Nc1ccc(O)c(C(=O)O)c1 [5-aminosalicylic acid] |  |  |  |  | Km (colonic mucosa): 2400 µM; Ki/IC50 (SMCT1): 2.8 mM |
| Nc1ccc(C(=O)NCC(=O)O)cc1 [PAH, para-aminohippuric acid] | 58.7 ± 2.9 % of control | 71.0 ± 5.5 % of control | 63.5 ± 5.5 % of control | 75.8 ± 2.3 % of control |  |
| CC1=NN(c2ccccc2)C(=O)C1 [Edaravone, edaravone] | 81.0 ± 5.4 % of control | 80.3 ± 6.0 % of control | 68.6 ± 6.3 % of control | 67.3 ± 7.6 % of control | IC50 [3, 8]: 28.9 mM |
